From the NIST ThermoML archive (doi:10.1016/j.jct.2018.06.007)
± gives the expanded uncertainty stated by the source.

Columns and labels:
[1] = 101 kPa, Liquid; for speed of sound: Frequency=2 MHz, Linear variable-path acoustic interferometer; for mass density: Pycnometric method
[2] = xn = mol fraction of the nth substance listed; details: 101 kPa, Liquid; for speed of sound: Frequency=2 MHz, Linear variable-path acoustic interferometer; for mass density: Pycnometric method

CCN(CC)CCO [(diethylamino)ethanol]
[1]
Details	mass density [kg/m3]	speed of sound [m/s]
293.15 K	884.37 ± 4	1366.5 ± 1.9
303.15 K	874.93 ± 4	1327.3 ± 1.8
313.15 K	865.62 ± 4	1285 ± 1.8

CCCCO [butan-1-ol]
[1]
Details	mass density [kg/m3]	speed of sound [m/s]
293.15 K	809.53 ± 4	1261.9 ± 1.8
303.15 K	802 ± 4	1224.7 ± 1.7
313.15 K	794.7 ± 4	1188.8 ± 1.7

CCCCO [butan-1-ol] + CCN(CC)CCO
[2], x2 = 0
Details	mass density [kg/m3]	speed of sound [m/s]
293.15 K	809.53 ± 4	1261.9 ± 1.8
303.15 K	802 ± 4	1224.7 ± 1.7
313.15 K	794.7 ± 4	1188.8 ± 1.7

CCCO [propan-1-ol]
[1]
Details	mass density [kg/m3]	speed of sound [m/s]
293.15 K	803.76 ± 4	1227 ± 1.7
303.15 K	795.82 ± 4	1192.5 ± 1.7
313.15 K	787.88 ± 4	1157.7 ± 1.7

CCN(CC)CCO [(diethylamino)ethanol] + CCCO
[2]
Details	mass density, 293.15 K [kg/m3]	mass density, 303.15 K [kg/m3]	mass density, 313.15 K [kg/m3]	speed of sound, 293.15 K [m/s]	speed of sound, 303.15 K [m/s]	speed of sound, 313.15 K [m/s]
x1 = 0.0937	817.5 ± 4	809.54 ± 4	801.82 ± 4	1247.7 ± 1.8	1213.2 ± 1.7	1178.9 ± 1.7
x1 = 0.1994	830.99 ± 4	822.96 ± 4	815.1 ± 4	1269 ± 1.8	1234.4 ± 1.8	1199.7 ± 1.7
x1 = 0.3005	842.11 ± 4	833.85 ± 4	825.77 ± 4	1287.6 ± 1.8	1252.7 ± 1.8	1217.3 ± 1.7
x1 = 0.4048	851.86 ± 4	843.48 ± 4	835.1 ± 4	1305 ± 1.8	1269.5 ± 1.8	1233.2 ± 1.7
x1 = 0.5072	859.98 ± 4	851.48 ± 4	842.85 ± 4	1320.1 ± 1.8	1284.1 ± 1.8	1247 ± 1.8
x1 = 0.61	866.74 ± 4	858.08 ± 4	849.33 ± 4	1333.3 ± 1.8	1296.9 ± 1.8	1259.2 ± 1.8
x1 = 0.7093	872.27 ± 4	863.47 ± 4	854.7 ± 4	1344 ± 1.9	1307.3 ± 1.8	1269.4 ± 1.8
x1 = 0.801	876.7 ± 4	867.78 ± 4	858.95 ± 4	1352.2 ± 1.9	1315.3 ± 1.8	1277 ± 1.8
x1 = 0.9047	881.06 ± 4	871.91 ± 4	862.91 ± 4	1360.1 ± 1.9	1322.3 ± 1.8	1282.5 ± 1.8
x1 = 1	884.37 ± 4	874.93 ± 4	865.62 ± 4	1366.5 ± 1.9	1327.3 ± 1.8	1285 ± 1.8

CCCO [propan-1-ol] + CCN(CC)CCO
[2], x2 = 0
Details	mass density [kg/m3]	speed of sound [m/s]
293.15 K	803.76 ± 4	1227 ± 1.7
303.15 K	795.82 ± 4	1192.5 ± 1.7
313.15 K	787.88 ± 4	1157.7 ± 1.7

CCN(CC)CCO [(diethylamino)ethanol] + CCCCO
[2]
Details	mass density, 293.15 K [kg/m3]	mass density, 303.15 K [kg/m3]	mass density, 313.15 K [kg/m3]	speed of sound, 293.15 K [m/s]	speed of sound, 303.15 K [m/s]	speed of sound, 313.15 K [m/s]
x1 = 0.0902	820.03 ± 4	812.47 ± 4	805.16 ± 4	1276.3 ± 1.8	1239.8 ± 1.8	1204.1 ± 1.7
x1 = 0.1941	831.16 ± 4	823.43 ± 4	815.92 ± 4	1291.2 ± 1.8	1254.8 ± 1.8	1218.7 ± 1.7
x1 = 0.2938	840.82 ± 4	832.89 ± 4	825.11 ± 4	1304.3 ± 1.8	1267.7 ± 1.8	1231 ± 1.7
x1 = 0.4045	850.42 ± 4	842.23 ± 4	834.18 ± 4	1317.8 ± 1.8	1281 ± 1.8	1243.5 ± 1.8
x1 = 0.5081	858.32 ± 4	849.91 ± 4	841.63 ± 4	1329.2 ± 1.8	1292.2 ± 1.8	1254 ± 1.8
x1 = 0.6088	865.03 ± 4	856.45 ± 4	847.98 ± 4	1339.3 ± 1.9	1302.1 ± 1.8	1263.3 ± 1.8
x1 = 0.7129	871.14 ± 4	862.42 ± 4	853.78 ± 4	1348.6 ± 1.9	1311.2 ± 1.8	1271.9 ± 1.8
x1 = 0.8131	876.29 ± 4	867.39 ± 4	858.66 ± 4	1356.4 ± 1.9	1318.7 ± 1.8	1278.8 ± 1.8
x1 = 0.9037	880.46 ± 4	871.28 ± 4	862.4 ± 4	1362.2 ± 1.9	1324 ± 1.8	1283.2 ± 1.8
x1 = 1	884.37 ± 4	874.93 ± 4	865.62 ± 4	1366.5 ± 1.9	1327.3 ± 1.8	1285 ± 1.8
